Experimental data: ChEMBL document CHEMBL1201862, “PubChem BioAssay data set” (2004)
Calls of active or inactive are those of the source.

Key:
[1] = viability loss in THP-1 monocytes – THP-1 cells, cytotoxicity control for Vif-APOBEC3G degradation inhibitor project, dose response (AID 1117359); type: functional; conditions: THP-1
[2] = system: BJ; experiment: BJ-TERT fibroblast viability loss – cell-based, RAS-independent, luminescence, dose response (AID 1933); type: functional; conditions: Homo sapiens
[3] = molecular target: Luciferin 4-monooxygenase (Photinus pyralis, UniProt P08659); experiment: inhibition of purified Photinus pyralis luciferase – biochemical, luminescence, dose response (AID 1891)
Chain of Luciferin 4-monooxygenase (P08659 whole entry): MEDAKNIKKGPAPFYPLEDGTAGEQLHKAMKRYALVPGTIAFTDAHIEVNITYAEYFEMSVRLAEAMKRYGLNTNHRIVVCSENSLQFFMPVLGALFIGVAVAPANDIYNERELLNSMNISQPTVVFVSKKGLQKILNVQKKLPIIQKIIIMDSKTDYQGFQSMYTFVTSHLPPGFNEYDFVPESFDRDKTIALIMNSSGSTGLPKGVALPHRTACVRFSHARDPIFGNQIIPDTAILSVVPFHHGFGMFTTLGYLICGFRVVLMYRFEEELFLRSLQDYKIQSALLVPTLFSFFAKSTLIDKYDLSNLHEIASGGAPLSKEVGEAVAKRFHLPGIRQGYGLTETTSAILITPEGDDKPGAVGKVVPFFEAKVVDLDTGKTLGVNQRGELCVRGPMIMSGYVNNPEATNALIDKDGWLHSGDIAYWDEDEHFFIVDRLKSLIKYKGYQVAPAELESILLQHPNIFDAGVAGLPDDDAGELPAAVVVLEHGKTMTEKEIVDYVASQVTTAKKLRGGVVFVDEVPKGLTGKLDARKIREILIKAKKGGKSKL

[4] = system: BJ; experiment: BJ-TERT-LT-ST fibroblast viability loss – cell-based, RAS-independent, luminescence, dose response (AID 1935); type: functional; conditions: Homo sapiens;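 note: BJ fibroblasts immortalized with TERT plus LT and ST oncogenes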
[5] = DRD fibroblast viability loss – cell-based, non-viral oncogenic, luminescence, dose response (AID 1934); type: functional; conditions: Homo sapiens
[6] = system: BJ; experiment: cells; type: functional, cell-based; conditions: Homo sapiens
[7] = Luminescence Cell-Based Dose Confirmation HTS to Identify Inhibitors of Platelet Dense Granule Release. [Related pubchem assays: 1663 (Primary HTS), 1678 (Summary of Project)]; type: functional
[8] = microbe, parasite or virus in culture; type: functional; conditions: Mycobacterium tuberculosis
[9] = reduced cellular PGC1a acetyl-lysine signal – cell-based, cherry-picked samples, dose response (AID 720514); type: functional;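 note: potency may reflect raised or lowered acetylation signal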
[10] = molecular target: Sphingosine 1-phosphate receptor 2 (Homo sapiens, UniProt O95136); experiment: Dose Response Cell Based Assay for Agonists of the S1P2 Receptor. [Related pubchem assays: 729, 736, 843 ]; type: functional
Chain of Sphingosine 1-phosphate receptor 2 (O95136 whole entry): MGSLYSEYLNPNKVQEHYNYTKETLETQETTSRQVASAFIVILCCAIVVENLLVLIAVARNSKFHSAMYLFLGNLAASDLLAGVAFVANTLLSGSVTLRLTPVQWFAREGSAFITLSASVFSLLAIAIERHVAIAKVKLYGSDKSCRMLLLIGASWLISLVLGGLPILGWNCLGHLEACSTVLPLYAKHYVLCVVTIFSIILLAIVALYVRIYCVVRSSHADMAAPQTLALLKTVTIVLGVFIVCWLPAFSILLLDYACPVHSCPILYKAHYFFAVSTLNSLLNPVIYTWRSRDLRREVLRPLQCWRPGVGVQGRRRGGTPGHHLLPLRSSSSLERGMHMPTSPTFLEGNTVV

[11] = cells; conditions: A549
[12] = molecular target: T1, DNA repair and recombination protein RAD54-like (Homo sapiens, UniProt Q92698); experiment: RAD54 Holliday junction migration blockers – biochemical, fluorescence, cherry-picked samples, dose series, confirmation (AID 651657); type: functional
T1 sequence (Q92698 whole entry): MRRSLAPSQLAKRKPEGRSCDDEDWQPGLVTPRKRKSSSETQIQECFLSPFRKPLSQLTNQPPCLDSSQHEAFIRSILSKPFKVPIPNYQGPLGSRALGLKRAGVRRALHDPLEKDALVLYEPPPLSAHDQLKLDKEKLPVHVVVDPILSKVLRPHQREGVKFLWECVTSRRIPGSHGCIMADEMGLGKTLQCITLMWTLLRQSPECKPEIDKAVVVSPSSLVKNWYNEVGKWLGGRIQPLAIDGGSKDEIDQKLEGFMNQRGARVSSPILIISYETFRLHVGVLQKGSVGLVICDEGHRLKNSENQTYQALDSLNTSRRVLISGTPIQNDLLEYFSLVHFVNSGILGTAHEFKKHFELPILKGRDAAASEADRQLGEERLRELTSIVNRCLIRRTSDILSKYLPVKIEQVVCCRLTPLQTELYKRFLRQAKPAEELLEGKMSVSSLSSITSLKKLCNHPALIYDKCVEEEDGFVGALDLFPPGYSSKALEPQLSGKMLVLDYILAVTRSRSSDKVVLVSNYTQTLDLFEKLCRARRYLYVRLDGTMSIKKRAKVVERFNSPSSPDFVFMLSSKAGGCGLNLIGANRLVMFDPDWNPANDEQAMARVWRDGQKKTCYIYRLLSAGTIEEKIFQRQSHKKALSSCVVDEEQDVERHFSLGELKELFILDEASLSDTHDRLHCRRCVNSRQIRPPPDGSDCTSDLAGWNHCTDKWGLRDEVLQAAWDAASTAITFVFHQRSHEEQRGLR

[13] = cells; conditions: HEK293
[14] = molecular target: T2, Aminopeptidase N (Plasmodium falciparum FcB1/Columbia, UniProt O96935); experiment: malaria alanyl aminopeptidase activity blockers – biochemical, fluorogenic H-Leu-NHMec substrate, 1536-well (AID 1445); set-up: species or system Plasmodium falciparum 3D7, 3D7
T2 sequence (O96935 whole entry): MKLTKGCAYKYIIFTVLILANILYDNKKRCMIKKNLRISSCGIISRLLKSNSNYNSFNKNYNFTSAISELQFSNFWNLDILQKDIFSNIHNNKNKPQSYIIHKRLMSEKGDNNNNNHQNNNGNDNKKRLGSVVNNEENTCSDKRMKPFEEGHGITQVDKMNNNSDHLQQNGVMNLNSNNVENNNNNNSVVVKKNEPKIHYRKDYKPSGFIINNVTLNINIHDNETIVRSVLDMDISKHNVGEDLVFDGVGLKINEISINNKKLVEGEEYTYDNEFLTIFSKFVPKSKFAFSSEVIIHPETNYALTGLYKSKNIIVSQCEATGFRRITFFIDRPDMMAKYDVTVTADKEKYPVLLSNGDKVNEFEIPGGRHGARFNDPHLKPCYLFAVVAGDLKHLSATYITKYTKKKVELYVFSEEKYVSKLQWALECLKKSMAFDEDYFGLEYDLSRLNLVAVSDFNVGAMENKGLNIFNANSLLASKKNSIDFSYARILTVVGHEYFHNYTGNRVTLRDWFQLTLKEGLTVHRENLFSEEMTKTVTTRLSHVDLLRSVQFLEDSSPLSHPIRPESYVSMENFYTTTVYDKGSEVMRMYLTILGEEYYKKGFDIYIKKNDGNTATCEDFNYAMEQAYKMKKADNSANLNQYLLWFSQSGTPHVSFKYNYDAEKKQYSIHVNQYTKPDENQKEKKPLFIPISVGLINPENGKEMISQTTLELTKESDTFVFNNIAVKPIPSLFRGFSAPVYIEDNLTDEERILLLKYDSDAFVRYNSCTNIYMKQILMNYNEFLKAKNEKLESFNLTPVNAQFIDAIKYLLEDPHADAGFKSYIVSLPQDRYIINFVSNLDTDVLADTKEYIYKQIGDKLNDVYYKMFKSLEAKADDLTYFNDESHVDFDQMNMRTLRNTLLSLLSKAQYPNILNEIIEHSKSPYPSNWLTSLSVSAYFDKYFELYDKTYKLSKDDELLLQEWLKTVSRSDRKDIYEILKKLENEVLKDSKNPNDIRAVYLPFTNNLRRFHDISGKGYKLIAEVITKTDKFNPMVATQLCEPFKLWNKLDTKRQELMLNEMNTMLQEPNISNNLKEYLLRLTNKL

[15] = glucagon-like peptide-1 release potency in STC-1, concentration-response, half-maximal inhibitory concentration in the STC-1 line (AID 1117345); type: functional, cell-based
[16] = Potency on glucagon-like peptide 1 release, dose-response in NCI-H716 cell line, half maximal inhibitory concentration (AID 1117344); type: functional, cell-based
[17] = MITF Measured in Cell-Based System Using Plate Reader - 2084-01_Inhibitor_Dose_DryPowder_Activity_Set7.; type: functional
[18] = MITF Orthogonal Assay: SK-MEL-5 CTG Assay Measured in Cell-Based System Using Plate Reader - 2084-02_Inhibitor_Dose_DryPowder_Activity_Set5.; type: functional
[19] = growth inhibition of SK-MEL-5 melanoma cells – cell-based, CellTiter-Glo luminescence, dry powder, set 8, orthogonal assay for MITF inhibitor project, dose response (AID 651586); type: functional
[20] = inhibitors of TRPM1-promoter reporter in SK-MEL-5 – cell-based, luciferase, dry powder, set 9, MITF inhibitor project, dose response (AID 651588); type: functional
[21] = cytotoxicity in MITF-independent A375 cells – cell-based, CellTiter-Glo luminescence, dry powder, set 4, counter-screen for MITF inhibitor project, dose response (AID 624364); type: functional; conditions: A-375;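 note: A375 melanoma cells are MITF independent so this is a counter screen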
[22] = cytotoxicity in melanoma parental cells – cell-based, CellTiter-Glo, dry powder, set 6, MITF inhibitor project, dose response (AID 624429); type: functional; conditions: SK-MEL-5
[23] = MITF Measured in Cell-Based System Using Plate Reader - 2084-01_Inhibitor_Dose_DryPowder_Activity_Set6.; type: functional
[24] = growth inhibition of MALME3 cells – cell-based, CellTiter-Glo luminescence, dry powder, set 5, orthogonal assay for MITF inhibitor project, dose response (AID 651584); type: functional; conditions: MALME-3
[25] = viability loss in MITF-independent A375 cells – cell-based, CellTiter-Glo luminescence, dry powder, set 7, counter-screen for MITF inhibitor project, dose response (AID 624490); type: functional; conditions: A-375
[26] = cytotoxicity in MITF-independent A375 cells – cell-based, CellTiter-Glo luminescence, dry powder, set 9, counter-screen for MITF modulator project, dose response (AID 651591); type: functional; conditions: A-375
[27] = MITF Orthogonal Assay: MALME3 CTG Assay Measured in Cell-Based System Using Plate Reader - 2084-04_Inhibitor_Dose_DryPowder_Activity_Set6.; type: functional; conditions: MALME-3
[28] = molecular target: G-protein coupled receptor 183 (Homo sapiens, UniProt P32249); experiment: SAR confirmation of small molecule antagonists of the EBI2 receptor via a luminescent beta-arrestin assa.; type: functional
Chain of G-protein coupled receptor 183 (P32249 whole entry): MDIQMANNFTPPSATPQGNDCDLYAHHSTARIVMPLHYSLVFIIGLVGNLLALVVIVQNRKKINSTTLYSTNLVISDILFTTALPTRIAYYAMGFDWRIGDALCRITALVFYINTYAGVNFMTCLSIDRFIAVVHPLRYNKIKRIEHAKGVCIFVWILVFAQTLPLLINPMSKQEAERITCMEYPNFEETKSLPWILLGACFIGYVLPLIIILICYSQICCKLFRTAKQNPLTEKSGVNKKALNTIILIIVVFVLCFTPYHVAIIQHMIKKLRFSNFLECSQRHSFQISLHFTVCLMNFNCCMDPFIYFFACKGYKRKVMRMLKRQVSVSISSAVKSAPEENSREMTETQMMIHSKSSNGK

[29] = P. falciparum Dd2 growth inhibitors, dose response, SYBR Green, cherry-picked samples (AID 1159567); type: functional, cell-based
[30] = toxicity to human hepatoma HepG2 cells – cell-based, cherry-picked samples, cytotoxicity control, dose response (AID 1159577); type: functional
[31] = IC50 of insulin release inhibition, rat insulinoma INS-1E line, 5 mM glucose, cell-based (AID 1117331); type: functional

## NS(=O)(=O)c1cccc(NS(=O)(=O)c2ccc(/C=C/C(=O)OCC(=O)c3ccccc3)cc2)c1
[1]
  CC50: > 40 µM (active)

## COc1ccccc1N1CCN(c2ccc(-c3ccccc3)nn2)CC1
[2]
  EC50: 2.33 µM (active)
[3]
  EC50: 3.72 µM (active)
[4]
  EC50: 1.93 µM (active)
[5]
  EC50: 1.7 µM (active)
[6]
  EC50: 17 µM (active)
[7]
  EC50: 5.08 µM (active)
[8]
  CC50: 13.7 µM (active)
[9]
  AC50: 25.9 µM (active)

## Cc1cc(C)n2cc(CSc3nnnn3-c3ccc(Cl)cc3)nc2n1
[10]
  EC50: > 50 µM (not active)

## CCn1c(=N)c(C(=O)NCCCOC)cc2c(=O)n3cccc(C)c3nc21
[11]
  AC50: > 52 µM (inactive)
[12]
  AC50: 33.6 µM (active)
[13]
  AC50: > 52 µM (inactive)
[14]
  IC50: 50.3 µM (active)

## Cc1c(C)c2c(c(C)c1OC(=O)CCC(=O)OCCO)CC[C@@](C)(CCC[C@H](C)CCC[C@H](C)CCCC(C)C)O2
[15]
  IC50: > 40 µM (inactive)
[16]
  IC50: > 40 µM (inactive)

## Cc1cccc(S(=O)(=O)N2C[C@@H]3N[C@H](C2)[C@@H]3c2ccc(-c3ccccc3C)cc2)c1
[9]
  AC50: 12.8 µM (active)

## NC1=C(NS(=O)(=O)c2cccs2)C(=O)c2ccccc2C1=O
[17]
  AC50: 5.42 µM (active)
[18]
  AC50: 16.9 µM (active)
[19]
  AC50: 22.1 µM (active)
[20]
  AC50: 21.3 µM (active)
[21]
  AC50: > 70 µM (inactive)
[22]
  AC50: 16.7 µM (active)
[23]
  AC50: 5.31 µM (active)
[24]
  AC50: 32.5 µM (active)
[25]
  AC50: 53 µM (active)
[26]
  AC50: > 70 µM (inactive)
[27]
  AC50: 32.5 µM (active)

## O=C(/C=C/c1ccc(Br)cc1)N1CCN(Cc2ccc(Cl)cc2F)CC1
[28]
  IC50: 0.00811 µM (active)

## O=C(/C=C/c1ccc(Cl)cc1F)N1CCN(S(=O)(=O)c2ccccc2)CC1
[28]
  IC50: 0.184 µM (active)

## COc1cccc(CN(C)C[C@H]2OCc3ccccc3-c3c(n(C)c4ccccc34)C(=O)N([C@H](C)CO)C[C@H]2C)c1
[29]
  AC50: 6.01 µM (active)
[30]
  AC50: > 39 µM (inactive)

## CN(C)CCOC(C)(c1ccccc1)c1ccccn1 (stereo not drawn) [DOXYLAMINE SUCCINATE]
[31]
  IC50: > 33.3 µM (inactive)
